{"source": "patent US20030105138A1", "about": "“Method of treatment for decreasing mortality resulting from congestive heart failure” (Boehringer Mannheim Pharmaceuticals Corporation- SmithKline …, priority 1995, published 2003)", "key": {"patients with CHF [1]": {"system": "patients with CHF", "assay": "US Carvedilol Heart Failure Trials: mortality studies in CHF patients (multicenter, double-blind, placebo-controlled, intention-to-treat)", "assay_type": "in vivo, humans", "design": "All Cause Mortality / Risk Reduction, all-cause mortality / Mortality / Risk Reduction, mortality: concentration or dose not given beside the values", "conditions": "for Risk Reduction, mortality / Risk Reduction, all-cause mortality: versus placebo", "source_text": "To determine if β-adrenergic blockade might inhibit the deleterious effects of the sympathetic nervous system on survival in heart failure (CHF), 1052 patients with CHF were prospectively enrolled into a multicenter trial program, in which patients were randomly assigned (double-blind) to 6-12 months' treatment with placebo (PBO) or carvedilol (CRV),. After a common screening period, patients with class II-IV CHF (see next paragraph for the definitions of the classification of CHF) and an ejection fraction ≦0.35 were assigned to one of four protocols based on performance on a 6-minute walk test. PBO or CRV was added to existing therapy with digoxin, diuretics and an ACE inhibitor. All-cause mortality was monitored by a prospectively constituted Data and Safety Monitoring Board (DSMB). After 25 months of enrollment, the DSMB recommended termination of the program because of a favorable effect of CRV on survival. By intention-to-treat, mortality was 8.2% in the PBO group but only 2.9% in the CRV group (P=0.0001, Cochran-Mantel-Haensel analysis). This represented a reduction in risk of death by CRV of 67% (95% CI: 42% to 81%). The treatment effect was similar in patients with class II and class III-IV symptoms. Mortality was reduced in class II patients from 5.9% to 1.9%, a 68% reduction (95% CI: 20% to 97%) [P=0.015,], and in class III-IV patients from 11.0% to 4.2%, a 67% reduction (95% CI: 30% to 84%), [P=0.004, log-rank]. Importantly, the effect of CRV was similar in ischemic heart disease (risk reduced by 67%, P=0.003) and in non-ischemic dilated cardiomyopathy (risk reduced by 67%, P=0.014). […] The treatment effect is seen across a broad range of severity and etiology of disease.\nPatients on background therapy with diuretics, ACE inhibitors and/or digoxin were stratified on the basis of baseline submaximal exercise performance, into one of four trials: study 220, a dose response study in moderate (NYHA II-IV) CHF with exercise testing as a primary endpoint study 221, a dose titration study in moderate (NYHA II-IV) CHF with exercise testing as a primary endpoint study 239, a dose titration study in severe (NYHA III-IV) CHF with quality of life as a primary endpoint study 240, a dose titration study in mild (NYHA II-III) CHF with progression of CHF as a primary endpoint Sixty-four centers in the U.S. participated in the trial program. All sites conducted protocols 239 and 240, while 33 performed protocol 220 and 31 performed protocol 221.\nAlthough each trial had its own individual objectives, the overall program objective defined prospectively was evaluation of all-cause mortality. Based upon a projected enrollment of 1100 patients, the program had 90% power to detect a 50% reduction in mortality (two-sided) between carvedilol and placebo, assuming a mortality rate in the placebo group of 12% over the duration of the trials (α=0.05).\nRandomization was preceded by a screening and challenge period common to the four protocols The purpose of the screening period was to qualify patients for study entry, obtain reproducible baseline measurements, and stratify patients into the appropriate trial based on submaximal exercise testing. During the challenge period, patients received low-dose open-label carvedilol (6.25 mg b.i.d.) for two weeks. […] Patients tolerating low-dose carvedilol were then randomized to blinded medication (carvedilol or placebo) with the dose titrated over several weeks in the range of 6.25 to 50 mg b.i.d. (or equivalent level of placebo). The maintenance phase of each study ranged from six to 12 months, after which patients had the option of receiving open-label carvedilol in an extension study.\nThe analysis presented below corresponds to the data set on which the DSMB made the recommendation to terminate the trials. Included in this intent-to-treat analysis are all patients enrolled in the U.S. trials as of Jan. 20, 1995; 624 receiving carvedilol and 356 placebo."}, "patients with CHF [2]": {"system": "patients with CHF", "conditions": "treatment of CHF; cited from earlier work"}, "[3]": {"conditions": "Class III-IV CHF, listed as CRV"}}, "data": [{"smiles": "COc1ccccc1OCCNCC(O)COc1cccc2[nH]c3ccccc3c12", "note": "(stereo not shown) [Carvedilol]", "values": [{"measurement": "Mortality", "setting": "patients with CHF [1]; Class II CHF", "value": "(1.9%)"}, {"measurement": "Mortality (deaths/patients)", "setting": "patients with CHF [1]; Class II CHF", "value": "7/361"}, {"measurement": "Risk Reduction, mortality", "setting": "patients with CHF [1]; Class II CHF", "value": 68, "unit": "%"}, {"measurement": "Risk Reduction, mortality", "setting": "patients with CHF [1]; Class II CHF, listed as CRV", "value": 68, "unit": "%"}, {"measurement": "Mortality", "setting": "patients with CHF [1]; Class II CHF, listed as CRV", "value": 1.9, "unit": "%"}, {"measurement": "Mortality", "setting": "patients with CHF [1]; Class III-IV CHF", "value": "(4.2%)"}, {"measurement": "Mortality (deaths/patients)", "setting": "patients with CHF [1]; Class III-IV CHF", "value": "11/263"}, {"measurement": "Risk Reduction, mortality", "setting": "patients with CHF [1]; Class III-IV CHF", "value": 66, "unit": "%"}, {"measurement": "Risk Reduction, mortality", "setting": "patients with CHF [1]; [3]", "value": 67, "unit": "%"}, {"measurement": "Mortality", "setting": "patients with CHF [1]; [3]", "value": 4.2, "unit": "%"}, {"measurement": "Mortality", "setting": "patients with CHF [1]; Ischemic Etiology", "value": "(3.2%)"}, {"measurement": "Mortality (deaths/patients)", "setting": "patients with CHF [1]; Ischemic Etiology", "value": "10/311"}, {"measurement": "Risk Reduction, mortality", "setting": "patients with CHF [1]; Ischemic Etiology", "value": 67, "unit": "%"}, {"measurement": "Risk Reduction, mortality", "setting": "patients with CHF [1]; Ischemic Etiology, listed as CRV", "value": 67, "unit": "%"}, {"measurement": "Mortality", "setting": "patients with CHF [1]; Non-Ischemic Etiology", "value": "(2.5%)"}, {"measurement": "Mortality (deaths/patients)", "setting": "patients with CHF [1]; Non-Ischemic Etiology", "value": "8/313"}, {"measurement": "Risk Reduction, mortality", "setting": "patients with CHF [1]; Non-Ischemic Etiology", "value": 67, "unit": "%"}, {"measurement": "Risk Reduction, mortality", "setting": "patients with CHF [1]; Non-Ischemic Etiology, listed as CRV", "value": 67, "unit": "%"}, {"measurement": "All Cause Mortality", "setting": "patients with CHF [1]; all patients, intent-to-treat", "value": "(2.9%)"}, {"measurement": "All Cause Mortality (deaths/patients)", "setting": "patients with CHF [1]; all patients, intent-to-treat, added to digoxin, diuretics and ACE inhibitor, 6.25 to 50 mg b.i.d.", "value": "18/624"}, {"measurement": "All Cause Mortality", "setting": "patients with CHF [1]; all patients, intent-to-treat, listed as CRV", "value": 2.9, "unit": "%"}, {"measurement": "Risk Reduction, all-cause mortality", "setting": "patients with CHF [1]; all patients", "value": 67, "unit": "%"}, {"measurement": "Risk Reduction, all-cause mortality", "setting": "patients with CHF [1]; all patients, listed as CRV", "value": 67, "unit": "%"}]}, {"smiles": "CC(C)NCC(O)COc1ccc(COCCOC(C)C)cc1", "note": "(stereo not shown) [bisoprolol]", "values": [{"measurement": "Difference in mortality between drug-treated patients and placebo-treated patients", "setting": "patients with CHF [2]", "value": "no difference in mortality"}]}, {"smiles": "COCCc1ccc(OCC(O)CNC(C)C)cc1", "note": "(stereo not shown) [metoprolol]", "values": [{"measurement": "Difference in mortality between drug-treated patients and placebo-treated patients", "setting": "patients with CHF [2]", "value": "no difference in mortality"}]}]}
